# Laboratory results as given in US20100292205A1, “Pyrimidone Compounds As GSK-3 Inhibitors” (PFIZER INC., priority 2006, published 2010).
# Target: T1, Recombinant human GSK3β (Homo sapiens, UniProt P49841)
# T1 construct: His-tag; made in house; host or cells: Sf9 insect cells / baculovirus
# Experiment: GSK-3β (Glycogen Synthase Kinase) cell free enzyme assay
# Assay type: biochemical
# Details: 1 μM; Examples 201-221
# Outline: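 Recombinant human GSK3β, expressed in SF9/baculovirus cells and His-tag purified on Ni-NTA Superflow, was preincubated with test agent for 30 minutes at room temperature. Substrate mix was then added to start the reaction in 8 mM MOPS (pH 7.0), 10 mM magnesium acetate, 0.2 mM EDTA, 1 mM DTT, 2 uM cold ATP, 0.025 uCi/well [33P]ATP (120 uL) and 1.0 uM biotinylated peptide. Reactions ran at RT for 60 min.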
# T1 sequence (P49841 whole entry): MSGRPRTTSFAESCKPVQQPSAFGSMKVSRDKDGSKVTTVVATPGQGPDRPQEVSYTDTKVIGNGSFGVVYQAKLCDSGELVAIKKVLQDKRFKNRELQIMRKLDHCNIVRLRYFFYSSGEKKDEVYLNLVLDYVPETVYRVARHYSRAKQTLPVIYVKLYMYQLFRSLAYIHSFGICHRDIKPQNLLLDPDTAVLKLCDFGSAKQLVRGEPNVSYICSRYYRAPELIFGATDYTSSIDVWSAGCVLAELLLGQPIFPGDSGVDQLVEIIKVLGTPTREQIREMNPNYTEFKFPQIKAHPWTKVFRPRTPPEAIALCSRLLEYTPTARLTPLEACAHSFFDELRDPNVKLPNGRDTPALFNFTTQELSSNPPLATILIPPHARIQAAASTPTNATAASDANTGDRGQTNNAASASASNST
row,Compound,Percent inhibition at 1 μM [%]
1,"Methyl (1R,5S)-3-(1-methyl- 6-oxo-4-pyridin-4-yl-16- dihydropyrimidin-2-yl)-38- diazabicyclo[3.2.1]octane-8- carboxylate [Example 201]",89
2,"Methyl (1R,5S)-8-(1-methyl- 6-oxo-4-pyridin-4-yl-16- dihydropyrimidin-2-yl)-38- diazabicyclo[3.2.1]octane-3- carboxylate [Example 202]",93
3,"Methyl (3a,S5,S7,aR)-3a- methyl-5-[methyl(1-methyl- 6-oxo-4-pyridin-4-yl-16- dihydropyrimidin-2- yl)amino]octahydro-1H- indole-1-carboxylate [Example 212]",93

# Same assay, conditions: cell free enzyme assay; Examples 265-291
row,Compound,IC50 [nM]
1,"CC(C)Cc1nn(C)c2c(=O)[nH]c(N3C[C@@H]4[C@H](C3)[C@H]4N(C)c3nc(-c4ccncc4F)cc(=O)n3C)nc12 [Example 278, 5-[(1R,5S,6s)-6-{[4-(3-Fluoropyridin-4-yl)-1-methyl-6-oxo-1,6-dihydropyrimidin-2-yl](methyl)amino}-3-azabicyclo[3.1.0]hex-3-yl]-3-isobutyl-1-methyl-1,6-dihydro-7H-pyrazolo[4,3-d]pyrimidin-7-one]",109
2,"CN(c1nc(-c2ccncc2F)cc(=O)n1C)[C@H]1[C@@H]2CN(c3nnnn3C)C[C@@H]21 [Example 279, 6-(3-Fluoropyridin-4-yl)-3-methyl-2-{methyl[(1R,5S,6s)-3-(1-methyl-1H-tetrazol-5-yl)-3-azabicyclo[3.1.0]hex-6-yl]amino}pyrimidin-4(3H)-one]",58.6
3,"CN(c1nc(-c2ccncc2F)cc(=O)n1C)[C@H]1[C@@H]2CN(c3nc4ccccc4s3)C[C@@H]21 [Example 283, 2-{[(1R,5S,6s)-3-(1,3-Benzothiazol-2-yl)-3-azabicyclo[3.1.0]hex-6-yl](methyl)amino}-6-(3-fluoropyridin-4-yl)-3-methylpyrimidin-4(3H)-one]",55.7
4,"Cc1nc(N2C[C@@H]3[C@H](C2)[C@H]3N(C)c2nc(-c3ccncc3F)cc(=O)n2C)n2nc(-c3ccccc3Cl)c(I)c2n1 [Example 285, 2-[{(1R,5S,6s)-3-[7-(2-Chlorophenyl)-8-iodo-2-methylpyrazolo[1,5-a][1,3,5]triazin-4-yl]-3-azabicyclo[3.1.0]hex-6-yl}(methyl)amino]-6-(3-fluoropyridin-4-yl)-3-methylpyrimidin-4(3H)-one]",5670
5,"CN(c1nc(-c2ccncc2F)cc(=O)n1C)[C@H]1[C@@H]2CN(c3nc4cc(F)ccc4[nH]3)C[C@@H]21 [Example 288, 2-{[(1R,5S,6s)-3-(5-Fluoro-1H-benzimidazol-2-yl)-3-azabicyclo[3.1.0]hex-6-yl](methyl)amino}-6-(3-fluoropyridin-4-yl)-3-methylpyrimidin-4(3H)-one]",116

# More lines, now with the values ahead:
row,IC50 [nM],Compound
1,4.48,"CN(c1nc(-c2ccncc2F)cc(=O)n1C)[C@H]1[C@@H]2CN(c3nnnn3CC3CC3)C[C@@H]21 [Example 280, 2-[{(1R,5S,6s)-3-[1-(Cyclopropylmethyl)-1H-tetrazol-5-yl]-3-azabicyclo[3.1.0]hex-6-yl}(methyl)amino]-6-(3-fluoropyridin-4-yl)-3-methylpyrimidin-4(3H)-one]"
2,36.3,"CN(c1nc(-c2ccncc2F)cc(=O)n1C)[C@H]1[C@@H]2CN(c3nc4cc(C(F)(F)F)ccc4[nH]3)C[C@@H]21 [Example 281, 6-(3-Fluoropyridin-4-yl)-3-methyl-2-(methyl{(1R,5S,6s)-3-[5-(trifluoromethyl)-1H-benzimidazol-2-yl]-3-azabicyclo[3.1.0]hex-6-yl}amino)pyrimidin-4(3H)-one]"
3,3.25,"CC(C)n1nnnc1N1C[C@@H]2[C@H](C1)[C@H]2N(C)c1nc(-c2ccncc2F)cc(=O)n1C [Example 282, 6-(3-Fluoropyridin-4-yl)-2-{[(1R,5S,6s)-3-(1-isopropyl-1H-tetrazol-5-yl)-3-azabicyclo[3.1.0]hex-6-yl](methyl)amino}-3-methylpyrimidin-4(3H)-one]"
4,12.5,"CN(c1nc(-c2ccncc2F)cc(=O)n1C)[C@H]1[C@@H]2CN(c3nnnn3C3CCCC3)C[C@@H]21 [Example 284, 2-{[(1R,5S,6s)-3-(1-Cyclopentyl-1H-tetrazol-5-yl)-3-azabicyclo[3.1.0]hex-6-yl](methyl)amino}-6-(3-fluoropyridin-4-yl)-3-methylpyrimidin-4(3H)-one]"
5,3.2,"CCOc1cccc(-n2nnnc2N2C[C@@H]3[C@H](C2)[C@H]3N(C)c2nc(-c3ccncc3F)cc(=O)n2C)c1 [Example 286, 2-[{(1R,5S,6s)-3-[1-(3-Ethoxyphenyl)-1H-tetrazol-5-yl]-3-azabicyclo[3.1.0]hex-6-yl}(methyl)amino]-6-(3-fluoropyridin-4-yl)-3-methylpyrimidin-4(3H)-one]"
6,3.06,"COCC(C)n1nnnc1N1C[C@@H]2[C@H](C1)[C@H]2N(C)c1nc(-c2ccncc2F)cc(=O)n1C (stereo partly drawn) [Example 287, 6-(3-Fluoropyridin-4-yl)-2-[{(1R,5S,6s)-3-[1-(2-methoxy-1-methylethyl)-1H-tetrazol-5-yl]-3-azabicyclo[3.1.0]hex-6-yl}(methyl)amino]-3-methylpyrimidin-4(3H)-one]"
7,25.1,"COc1ccc2nc(N3C[C@@H]4[C@H](C3)[C@H]4N(C)c3nc(-c4ccncc4F)cc(=O)n3C)sc2c1 [Example 289, 6-(3-Fluoropyridin-4-yl)-2-{[(1R,5S,6s)-3-(6-methoxy-1,3-benzothiazol-2-yl)-3-azabicyclo[3.1.0]hex-6-yl](methyl)amino}-3-methylpyrimidin-4(3H)-one]"
8,27.7,"CN(c1nc(-c2ccncc2F)cc(=O)n1C)[C@H]1[C@@H]2CN(c3nnnn3Cc3cccc(OC(F)(F)F)c3)C[C@@H]21 [Example 290, 6-(3-Fluoropyridin-4-yl)-3-methyl-2-{methyl[(1R,5S,6s)-3-{1-[3-(trifluoromethoxy)benzyl]-1H-tetrazol-5-yl}-3-azabicyclo[3.1.0]hex-6-yl]amino}pyrimidin-4(3H)-one]"
9,5.99,"CN(c1nc(-c2ccncc2F)cc(=O)n1C)[C@H]1[C@@H]2CN(c3nnnn3-c3cccc(OC(F)(F)F)c3)C[C@@H]21 [Example 291, 6-(3-Fluoropyridin-4-yl)-3-methyl-2-{methyl[(1R,5S,6s)-3-{1-[3-(trifluoromethoxy)phenyl]-1H-tetrazol-5-yl}-3-azabicyclo[3.1.0]hex-6-yl]amino}pyrimidin-4(3H)-one]"
